This note sets out measurements from publication PMC11472331 (Journal of Medicinal Chemistry, 2024).

Read-outs that look alike come from different tables or passages of the source.

The target of series [1] is T1, LSD1 (Homo sapiens, UniProt O60341). The note with it: read-out: IC50 (μM, LSD1 inhibition); 10-dose IC50 mode, singlet, threefold serial dilution starting at 100 μM.
The target of series [2] is HDAC1 (Homo sapiens, UniProt Q13547). The experiment in a line: HDAC isoform inhibition assay (Reaction Biology). The note with it: read-out: IC50 HDAC1; 10-dose IC50 mode, threefold serial dilution starting at 10 μM.
The target in series [3] is HDAC2 (Homo sapiens, UniProt Q92769). Briefly: HDAC isoform inhibition assay (Reaction Biology). The note with it: read-out: IC50 HDAC2; 10-dose IC50 mode, threefold serial dilution starting at 10 μM.
For series [4], the target named is T2, HDAC6 (Homo sapiens, UniProt Q9UBN7).
T2 sequence (Q9UBN7 1-1215): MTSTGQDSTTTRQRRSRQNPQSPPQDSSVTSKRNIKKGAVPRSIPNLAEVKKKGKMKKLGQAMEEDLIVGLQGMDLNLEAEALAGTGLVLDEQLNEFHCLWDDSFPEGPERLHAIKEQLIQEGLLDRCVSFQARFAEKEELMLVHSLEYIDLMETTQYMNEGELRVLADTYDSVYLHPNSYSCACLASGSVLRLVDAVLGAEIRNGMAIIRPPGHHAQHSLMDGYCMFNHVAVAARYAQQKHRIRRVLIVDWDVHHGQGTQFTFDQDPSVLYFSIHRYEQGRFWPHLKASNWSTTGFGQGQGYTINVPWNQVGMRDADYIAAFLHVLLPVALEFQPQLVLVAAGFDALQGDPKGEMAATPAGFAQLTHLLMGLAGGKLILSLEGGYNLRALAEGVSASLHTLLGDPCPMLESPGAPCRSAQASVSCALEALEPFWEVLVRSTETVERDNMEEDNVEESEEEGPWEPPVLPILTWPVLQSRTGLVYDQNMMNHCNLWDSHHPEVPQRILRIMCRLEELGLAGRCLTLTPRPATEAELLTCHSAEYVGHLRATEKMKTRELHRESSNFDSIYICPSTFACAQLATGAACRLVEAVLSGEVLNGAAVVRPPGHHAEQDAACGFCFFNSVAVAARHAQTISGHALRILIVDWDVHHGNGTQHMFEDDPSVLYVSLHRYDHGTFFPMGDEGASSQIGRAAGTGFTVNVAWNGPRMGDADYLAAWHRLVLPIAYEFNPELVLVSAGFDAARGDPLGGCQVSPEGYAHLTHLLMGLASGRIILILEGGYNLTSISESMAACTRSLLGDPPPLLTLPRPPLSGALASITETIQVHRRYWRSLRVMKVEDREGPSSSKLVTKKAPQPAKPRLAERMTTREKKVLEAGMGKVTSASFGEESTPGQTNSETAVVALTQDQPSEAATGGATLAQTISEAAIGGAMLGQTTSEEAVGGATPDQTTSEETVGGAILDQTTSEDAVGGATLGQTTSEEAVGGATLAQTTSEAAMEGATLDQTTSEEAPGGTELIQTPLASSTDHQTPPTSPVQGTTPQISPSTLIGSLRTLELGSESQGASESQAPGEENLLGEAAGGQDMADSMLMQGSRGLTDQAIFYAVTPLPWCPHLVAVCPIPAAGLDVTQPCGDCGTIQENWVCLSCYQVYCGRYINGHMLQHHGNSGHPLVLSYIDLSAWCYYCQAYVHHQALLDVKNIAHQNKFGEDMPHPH
The experiment in a line: HDAC isoform inhibition assay (Reaction Biology).

Series [5] deals with T3, HDAC8 (Homo sapiens, UniProt Q9BY41).
T3 sequence (Q9BY41 1-377): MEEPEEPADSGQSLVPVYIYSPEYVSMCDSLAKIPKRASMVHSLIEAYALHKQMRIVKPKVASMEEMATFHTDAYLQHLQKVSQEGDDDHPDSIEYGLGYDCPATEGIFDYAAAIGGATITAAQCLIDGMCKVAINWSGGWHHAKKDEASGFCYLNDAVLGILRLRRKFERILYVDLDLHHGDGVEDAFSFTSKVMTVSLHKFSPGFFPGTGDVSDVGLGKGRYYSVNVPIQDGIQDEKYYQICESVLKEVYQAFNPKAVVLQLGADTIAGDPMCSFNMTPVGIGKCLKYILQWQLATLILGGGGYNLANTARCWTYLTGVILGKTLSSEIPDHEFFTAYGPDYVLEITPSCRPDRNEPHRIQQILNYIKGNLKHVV
The experiment in a line: HDAC isoform inhibition assay (Reaction Biology). The conditions noted are these: read-out: IC50 HDAC8; 10-dose IC50 mode, threefold serial dilution starting at 10 μM.

Series [6] is described as follows: in vivo. The note with it: male, Sprague-Dawley, rat, plasma, po, 20 mg/kg.
The test system of series [7] is HCT-116. The experiment in a line: HCT-116 xenograft model. It counts as in vivo, Balb/c nude mice. The note with it: 50 or 100 mg/kg ip qd, nude mice.
Method: (A) Tumor size was evaluated twice a week, and (B) body weight was recorded daily in the first week, followed by semiweekly measurements.
Once the tumor sizes reached 150 mm^3, the mice were divided into four treatment groups, each comprising six mice. […] Throughout the experiment, tumor size and body weight were measured twice a week, with tumor volume (mm^3) calculated using the formula LW^2/2 (L is the tumor length, and W is the tumor width). Tumor growth inhibition (TGI) was calculated by dividing the tumor volumes from treatment groups by those of the control groups, expressed as a percentage.
In series [8] the target is T1, LSD1. Briefly: KDM1/LSD1 activity quantification/colorimetric assay. The conditions noted are these: 1 and 10 μM; compared with Corgline, selegiline, tranylcypromine, pargyline. Type of series: biochemical. On the procedure: LSD1 inhibitory assay was also performed using the KDM1/LSD1 Activity Quantification/Colorimetric Assay Kit, as described earlier.[38]
Setting [9] is: read-out: IC50 HDAC6, 10-dose IC50 mode, threefold serial dilution starting at 10 μM.

What is called IC50 is the midpoint of a concentration-inhibition curve. Usually Tmax stands for the time from dosing to the highest level.

Chain of HDAC1 (Q13547 whole entry, canonical isoform): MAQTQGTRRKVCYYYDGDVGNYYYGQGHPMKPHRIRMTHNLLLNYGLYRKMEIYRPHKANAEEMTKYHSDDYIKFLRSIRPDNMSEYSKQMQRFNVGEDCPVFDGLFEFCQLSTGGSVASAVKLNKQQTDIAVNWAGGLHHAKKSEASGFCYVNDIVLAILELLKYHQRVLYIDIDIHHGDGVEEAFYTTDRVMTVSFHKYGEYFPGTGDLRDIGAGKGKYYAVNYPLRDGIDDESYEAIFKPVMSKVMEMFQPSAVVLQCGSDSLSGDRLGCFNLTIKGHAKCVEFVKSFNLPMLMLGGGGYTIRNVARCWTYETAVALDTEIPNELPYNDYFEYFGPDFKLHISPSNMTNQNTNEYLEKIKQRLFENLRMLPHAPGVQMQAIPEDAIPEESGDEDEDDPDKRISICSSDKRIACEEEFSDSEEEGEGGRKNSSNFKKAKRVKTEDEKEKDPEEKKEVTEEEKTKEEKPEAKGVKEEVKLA
Chain of HDAC2 (Q92769 whole entry, canonical isoform): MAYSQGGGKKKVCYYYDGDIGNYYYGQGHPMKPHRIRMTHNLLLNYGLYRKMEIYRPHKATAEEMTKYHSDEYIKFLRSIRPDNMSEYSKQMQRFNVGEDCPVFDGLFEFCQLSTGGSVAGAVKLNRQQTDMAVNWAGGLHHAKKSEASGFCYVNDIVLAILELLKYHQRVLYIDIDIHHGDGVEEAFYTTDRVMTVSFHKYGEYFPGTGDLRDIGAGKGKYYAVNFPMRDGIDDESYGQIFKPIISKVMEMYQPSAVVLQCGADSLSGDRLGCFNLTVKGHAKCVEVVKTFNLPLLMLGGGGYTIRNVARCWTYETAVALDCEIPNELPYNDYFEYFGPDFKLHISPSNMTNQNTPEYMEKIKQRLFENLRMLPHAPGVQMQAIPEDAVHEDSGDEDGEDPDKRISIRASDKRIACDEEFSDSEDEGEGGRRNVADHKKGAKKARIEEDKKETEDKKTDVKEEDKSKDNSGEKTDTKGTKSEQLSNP

With `O=C(NO)c1ccc(CN[C@@H]2C[C@H]2c2ccccc2)cc1` [Compound 1, N-Hydroxy-4-((((1R,2S)-2-phenylcyclopropyl)amino)methyl)benzamide], the half-maximal inhibitory concentration (IC50) in series [1] is 28 µM; in series [2], 8720 nM.
With `O=C(/C=C/c1ccc(S(=O)(=O)N[C@@H]2C[C@H]2c2ccccc2)cc1)NO` [Compound 3, (E)-N-Hydroxy-3-(4-(N-((1R,2S)-2-phenylcyclopropyl)sulfamoyl)phenyl)acrylamide], the IC50 in series [3] was 343 nM; in series [1], 0.899 µM; in series [4], 9 nM; in series [4] (setting [9]) it was 9.66 nM; in series [5], 753 nM; in series [2] it was 116 nM.
Regarding `O=C(CCCCCCCCC(=O)N[C@@H]1C[C@H]1c1ccccc1)NO` [Compound 7, N1-Hydroxy-N10-((1R,2S)-2-phenylcyclopropyl)decanediamide], in series [1], the 50% inhibitory concentration (IC50) is 7.68 µM.
Turning to `O=C(CCCCCCC(=O)Nc1ccc(CN[C@@H]2C[C@H]2c2ccccc2)cc1)NO` [Compound 8], the 50% inhibitory concentration (IC50) in series [1] amounted to 1.61 µM; in series [4] (setting [9]), 3730 nM.
On to `O=C(CCCCCC(=O)N[C@@H]1C[C@H]1c1ccccc1)NO` [Compound 4, N1-Hydroxy-N7-((1R,2S)-2-phenylcyclopropyl)heptanediamide], for which the IC50 in series [1] is 38.3 µM.
The same measure, in the same setting: as for `O=C(CCCCCCC(=O)N[C@@H]1C[C@H]1c1ccccc1)NO` [Compound 5, N1-Hydroxy-N8-((1R,2S)-2-phenylcyclopropyl)octanediamide], the figure is 14.6 µM.
Consider `O=C(NO)c1ccc(CN2CCC(CN[C@@H]3C[C@H]3c3ccccc3)CC2)cc1` [Compound 9, N-Hydroxy-4-((4-((((1R,2S)-2-phenylcyclopropyl)amino)methyl)piperidin-1-yl)methyl)benzamide], for which the IC50 in series [5] was 1260 nM; in series [2], 12900 nM.
`O=C(/C=C/c1cccc(S(=O)(=O)N[C@@H]2C[C@H]2c2ccccc2)c1)NO` [Compound 2, (E)-N-Hydroxy-3-(3-(N-((1R,2S)-2-phenylcyclopropyl)sulfamoyl)phenyl)acrylamide]: the IC50 in series [3] stood at 373 nM; in series [1], 0.571 µM; in series [4], 11 nM; in series [4] (setting [9]), 11.8 nM; in series [2] it was 125 nM. For the same compound, the Tmax in series [6] was determined as 1.1 ± 0.9 h. In series [7], the “toxicity based on body weight measurements” value is “did not cause evident toxicity in animals”. In series [8], the “inhibition of LSD1 activity versus standard LSD1 inhibitors” value was “more effective in inhibiting the activity of LSD1 than the standard LSD1 inhibitor”.
On to `O=C(NO)c1ccc(CN2CCC(S(=O)(=O)N[C@@H]3C[C@H]3c3ccccc3)CC2)cc1` [Compound 10, N-Hydroxy-4-((4-(N-((1R,2S)-2-phenylcyclopropyl)sulfamoyl)piperidin-1-yl)methyl)benzamide], for which the 50% inhibitory concentration (IC50) came to 8300 nM in series [3]; 2.4 µM in series [1]; 9 nM in series [4] (read-out: HDAC6 IC50 as given in the text, rounded values of the running text); 9.32 nM in series [4] (setting [9]); 407 nM in series [5]; 4120 nM in series [2].
